In US20110306606A1, “NOVEL 2,6-SUBSTITUTED-3-NITROPYRIDINE DERIVATIVE, METHOD FOR PREPARING SAME, AND PHARMACEUTICAL COMPOSITION INCLUDING SAME” (priority 2008, published 2011):
Read-outs that look alike come from different tables or passages of the source.

How the values were obtained:
[1] = test system: formation of osteoclasts in co-culture of bone marrow cells and osteoblasts; assay: Osteoclastogenesis inhibition via co-culture system (TRAP staining); assay type: cell-based, mice; settings: 1 μM compound, 7 days co-culture, TRAP-positive multinucleated osteoclasts vs vehicle control; for inhibition at 1 µM: Mus musculus, Osteoclast, 168 h
Procedure: Osteoclastogenesis inhibitory effects of the compounds of the present invention were evaluated via a co-culture system (Reference: Endocrinology 137(1996), 2187 to 2190, E. Jimi et al.). A specific experimental method is as follows.
1) Preparation of Bone Marrow Cells and Osteoblasts
Femora and tibia were aseptically dissected from 6 to 8-week-old male ddY mice to harvest bone marrow cells by a conventional method using a syringe. In brief, tissues were removed from the dissected bone, the bone ends were cut off with scissors, and the bone marrow was isolated by pushing a medium-containing syringe (23G) against the one end of the cut bone. The isolated bone marrow was subjected to repeated piston movement of a syringe such that single cells were obtained (Reference: Endocrinology 123(1988), 2600 to 2602, Takahashi et al.). After removal of red blood cells within the bone marrow, the bone marrow cells recovered by centrifugation were placed in an α-MEM supplemented with 10% fetal bovine serum (FBS), followed by counting of nucleated cells and then were immediately used for a co-culture system.
2) Osteoclastogenesis Inhibition Experiment Via Co-Culture System
As the medium used for a co-culture system, a differentiation medium with the addition of differentiation factors 1α,25-dihydroxyvitamin D3 (10^−8M) and dexamethasone (10^−8M) to a-MEM supplemented with 10% FBS was used for the induction of osteoclastogenesis. First, the compounds dissolved in dimethyl sulfoxide (DMSO) at a concentration of 1 mM were diluted to 2 μM using the above-mentioned differentiation medium. As a vehicle control group, 0.2% (v/v) DMSO was added to the medium. 100 μL/well of each medium was added to 96-well plates. In addition, the above prepared bone marrow cells and osteoblasts were plated onto 96-well plates at a density of 1×10^5 cells/50 μL/well and 3×10^3 cells/50 μL/well, respectively. The total volume/well was 200 μL and the final compound concentration was 1 μM. The control group was 0.1% DMSO. The cells were cultured with exchange of the culture media with fresh media containing differentiation factors and test materials at an interval of 2 to 3 days.
7 days after culturing of cells, the formation of multinucleated osteoclasts was confirmed by microscopic examination, the medium was removed from the wells and then the cells were fixed in a 10% phosphate-buffered formalin solution. The degree of formation of mature osteoclasts was measured taking advantage of the characteristics of osteoclasts showing a positive reaction to a tartrate-resistant acid phosphatase (TRAP) staining solution. The TRAP staining solution was prepared in a manner such that naphthol AS-MS phosphate as a substrate and a coloring agent (Fast Red Violet LB salt) were dissolved in N,N-dimethylformamide, and a 0.1N NaHCO3 buffer solution containing 50 mM of tartaric acid was added thereto. Among the TRAP-positive cells under a light microscope, multinucleated osteoclasts having 6 to 7 nuclei were regarded as mature osteoclasts.
The degree of inhibition of osteoclastogenesis was calculated according to the following equation 1. The results are summarized in Table 27 below (Experiments were carried out for 4 wells/experimental group (n=4), and the results are given in terms of mean±standard deviation)
Inhibition of osteoclastogenesis(%)=(1−numbers of osteoclasts observed in experimental group/numbers of osteoclasts observed in vehicle control group)×100(%) [Equation 1]

[2] = test system: Osteoblasts (Calvarial cells); settings: ICR, mouse, 72 h, 1 μM
[3] = test system: Osteoblasts (Calvarial cells); assay: Cytotoxicity test (MTT); settings: 1 μM compound, 72 hours, in comparison with vehicle control

Row | SMILES | inhibition at 1 µM [1] [%] | Cell viability (%) Calvarial cell [2] [%] | Osteoclastogenesis inhibition (%) 1 μM [1] [%] | Cell viability (%) Calvarial cell [3] [%]
1 | O=[N+]([O-])c1ccc(NCc2cccnc2)nc1Nc1ccc(-n2ccnc2)cc1 [Compound 93, 2-[4-(imidazol-1-yl)phenylamino]-6-[(3-pyridyl)methylamino]-3-nitropyridine] | 66 | 98 |  | 
2 | CCN(CC)c1ccc(Nc2nc(NCC(C)C)ccc2[N+](=O)[O-])cc1F [Compound 177, 2-[(3-fluoro-4-diethylamino)phenylamino]-6-(isobutylamino)-3-nitropyridine] |  |  | 61 | 107
3 | CC(C)c1nccn1-c1ccc([N+](=O)[O-])c(Nc2ccc(-n3ccnc3)cc2)n1 [Compound 92, 2-[4-(imidazol-1-yl)phenylamino]-6-[(2-isopropyl)imidazol-1-yl]-3-nitropyridine] | 64 | 101 |  | 
4 | NC1CCN(c2ccc([N+](=O)[O-])c(Nc3ccc(N4CCOCC4)c(F)c3)n2)CC1 [Compound 202, 2-[(3-fluoro-4-morpholino)phenylamino]-6-(4-aminopiperidino)-3-nitropyridine] |  |  | 90 | 96
5 | CN(CC1OCCO1)c1ccc([N+](=O)[O-])c(Nc2ccc(-n3ccnc3)cc2)n1 [Compound 89] |  |  | 73 | 89
6 | NC1CCN(c2ccc([N+](=O)[O-])c(Nc3ccc(N4CCC(O)CC4)c(F)c3)n2)CC1 [Compound 246, 2-{[3-fluoro-4-(4-hydroxypiperidino)]phenylamino}-6-(4-aminopiperidino)-3-nitropyridine] |  |  | 80 | 105
7 | O=[N+]([O-])c1ccc(NCc2cccnc2)nc1Nc1ccc(N2CCC(O)CC2)c(F)c1 [Compound 241, 2-{[3-fluoro-4-(4-hydroxypiperidino)]phenylamino}-6-[(3-pyridyl)methylamino]-3-nitropyridine] |  |  | 87 | 100
8 | Cc1nc(-c2ccc(Nc3nc(N4CCNCC4)ccc3[N+](=O)[O-])cc2)cs1 [Compound 143, 2-[4-(2-methylthiazol-4-yl)phenylamino]-6-(piperazin-1-yl)-3-nitropyridine] | 99 | 85 |  | 
9 | CN1CCN(c2ccc([N+](=O)[O-])c(Nc3ccc(N4CCSCC4)c(F)c3)n2)CC1 [Compound 212, 2-[(3-fluoro-4-thiomorpholino)phenylamino]-6-(4-methylpiperazin-1-yl)-3-nitropyridine] |  |  | 85 | 100
10 | O=[N+]([O-])c1ccc(NCc2cccnc2)nc1Nc1ccc(N2CCOCC2)c(F)c1 [Compound 197, 2-[(3-fluoro-4-morpholino)phenylamino]-6-[(3-pyridyl)methylamino]-3-nitropyridine] |  |  | 81 | 95
11 | CCCCc1ccc(Nc2nc(NCCCn3ccnc3)ccc2[N+](=O)[O-])cc1 [Compound 56, 2-[4-(n-butyl)phenylamino]-6-[(3-imidazol-1-yl)propylamino]-3-nitropyridine] | 99 | 104 |  | 
12 | COc1ccc(Nc2nc(N3CCC(N)CC3)ccc2[N+](=O)[O-])cc1 [Compound 28, 2-(4-methoxyphenylamino)-6-(4-aminopiperidino)-3-nitropyridine] | 88 | 89 |  | 
13 | O=[N+]([O-])c1ccc(NCc2ccncc2)nc1Nc1ccc(N2CCOCC2)c(F)c1 [Compound 198, 2-[(3-fluoro-4-morpholino)phenylamino]-6-[(4-pyridyl)methylamino]-3-nitropyridine] |  |  | 84 | 96
14 | NC1CCN(c2ccc([N+](=O)[O-])c(Nc3ccc(N4CCSCC4)c(F)c3)n2)CC1 [Compound 214, 2-[(3-fluoro-4-thiomorpholino)phenylamino]-6-(4-aminopiperidino)-3-nitropyridine] |  |  | 98 | 103
15 | CC(C)c1nccn1-c1ccc([N+](=O)[O-])c(Nc2ccc(N3CCCCC3)c(F)c2)n1 [Compound 228, 2-[(3-fluoro-4-piperidino)phenylamino]-6-[(2-isopropyl)imidazol-1-yl]-3-nitropyridine] |  |  | 73 | 99
16 | NC1CCN(c2ccc([N+](=O)[O-])c(Nc3ccc(N4CCCCC4)c(F)c3)n2)CC1 [Compound 234, 2-[(3-fluoro-4-piperidino)phenylamino]-6-(4-aminopiperidino)-3-nitropyridine] |  |  | 100 | 94
17 | O=[N+]([O-])c1ccc(NCc2ccncc2)nc1Nc1ccc(N2CCC(O)CC2)c(F)c1 [Compound 242, 2-{[3-fluoro-4-(4-hydroxypiperidino)]phenylamino}-6-[(4-pyridyl)methylamino]-3-nitropyridine] |  |  | 93 | 114
18 | CC(C)CNc1ccc([N+](=O)[O-])c(Nc2ccc(N3CCC(O)CC3)c(F)c2)n1 [Compound 238, 2-{[3-fluoro-4-(4-hydroxypiperidino)]phenylamino}-6-(isobutylamino)-3-nitropyridine] |  |  | 75 | 106
19 | O=[N+]([O-])c1ccc(NCc2cccnc2)nc1Nc1ccc(N2CCNCC2)c(F)c1 [Compound 220, 2-[(3-fluoro-4-piperazino)phenylamino]-6-[(3-pyridyl)methylamino]-3-nitropyridine] |  |  | 82 | 93
20 | CN1CCN(c2ccc([N+](=O)[O-])c(Nc3ccc(N4CCCCC4)c(F)c3)n2)CC1 [Compound 232, 2-[(3-fluoro-4-piperidino)phenylamino]-6-(4-methylpiperazin-1-yl)-3-nitropyridine] |  |  | 86 | 100
21 | O=[N+]([O-])c1ccc(NCc2ccncc2)nc1Nc1ccc(N2CCNCC2)c(F)c1 [Compound 221, 2-[(3-fluoro-4-piperazino)phenylamino]-6-[(4-pyridyl)methylamino]-3-nitropyridine] |  |  | 89 | 91
22 | O=[N+]([O-])c1ccc(NCc2ccncc2)nc1Nc1ccc(N2CCSCC2)c(F)c1 [Compound 210, 2-[(3-fluoro-4-thiomorpholino)phenylamino]-6-[(4-pyridyl)methylamino]-3-nitropyridine] |  |  | 70 | 105
